The source of these data is ChEMBL document CHEMBL1201862, “PubChem BioAssay data set” (2004).

Structures are written as SMILES. Active and inactive are the calls of the source.

Test [1] addresses T1, Hexokinase-1 (Homo sapiens, UniProt P19367).
T1 sequence (P19367 whole entry): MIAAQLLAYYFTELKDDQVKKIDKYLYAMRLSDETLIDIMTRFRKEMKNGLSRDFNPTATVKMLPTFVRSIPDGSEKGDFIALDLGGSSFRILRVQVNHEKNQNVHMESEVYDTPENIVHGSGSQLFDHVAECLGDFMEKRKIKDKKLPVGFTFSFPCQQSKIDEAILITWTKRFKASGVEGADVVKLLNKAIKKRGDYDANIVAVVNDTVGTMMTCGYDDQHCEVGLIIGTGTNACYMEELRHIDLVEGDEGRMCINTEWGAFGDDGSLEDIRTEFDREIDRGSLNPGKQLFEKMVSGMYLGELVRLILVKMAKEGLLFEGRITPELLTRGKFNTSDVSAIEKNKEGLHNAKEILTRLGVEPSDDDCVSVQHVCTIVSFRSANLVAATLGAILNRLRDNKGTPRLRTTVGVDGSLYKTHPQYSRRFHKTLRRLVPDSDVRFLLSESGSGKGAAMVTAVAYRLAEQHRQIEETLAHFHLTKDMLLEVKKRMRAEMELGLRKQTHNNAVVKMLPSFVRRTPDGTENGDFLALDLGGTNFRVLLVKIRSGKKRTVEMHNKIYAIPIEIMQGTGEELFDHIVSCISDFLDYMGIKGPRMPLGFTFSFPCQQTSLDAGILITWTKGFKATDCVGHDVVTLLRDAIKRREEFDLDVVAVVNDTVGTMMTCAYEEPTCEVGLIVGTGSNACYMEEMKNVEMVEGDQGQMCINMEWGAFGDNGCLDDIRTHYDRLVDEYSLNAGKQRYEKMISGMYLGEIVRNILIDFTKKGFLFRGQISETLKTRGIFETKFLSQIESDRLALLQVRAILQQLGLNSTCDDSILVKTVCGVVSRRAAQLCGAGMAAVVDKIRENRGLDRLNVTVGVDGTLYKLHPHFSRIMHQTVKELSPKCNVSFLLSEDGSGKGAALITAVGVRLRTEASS
The experiment in a line: hexokinase 1 activators, dose response, selectivity assay for HKDC1 activator project, biochemical (AID 504762). It is filed as functional.

Test [2] concerns the target T2, Hexokinase HKDC1 (Homo sapiens, UniProt Q2TB90).
T2 sequence (Q2TB90 whole entry): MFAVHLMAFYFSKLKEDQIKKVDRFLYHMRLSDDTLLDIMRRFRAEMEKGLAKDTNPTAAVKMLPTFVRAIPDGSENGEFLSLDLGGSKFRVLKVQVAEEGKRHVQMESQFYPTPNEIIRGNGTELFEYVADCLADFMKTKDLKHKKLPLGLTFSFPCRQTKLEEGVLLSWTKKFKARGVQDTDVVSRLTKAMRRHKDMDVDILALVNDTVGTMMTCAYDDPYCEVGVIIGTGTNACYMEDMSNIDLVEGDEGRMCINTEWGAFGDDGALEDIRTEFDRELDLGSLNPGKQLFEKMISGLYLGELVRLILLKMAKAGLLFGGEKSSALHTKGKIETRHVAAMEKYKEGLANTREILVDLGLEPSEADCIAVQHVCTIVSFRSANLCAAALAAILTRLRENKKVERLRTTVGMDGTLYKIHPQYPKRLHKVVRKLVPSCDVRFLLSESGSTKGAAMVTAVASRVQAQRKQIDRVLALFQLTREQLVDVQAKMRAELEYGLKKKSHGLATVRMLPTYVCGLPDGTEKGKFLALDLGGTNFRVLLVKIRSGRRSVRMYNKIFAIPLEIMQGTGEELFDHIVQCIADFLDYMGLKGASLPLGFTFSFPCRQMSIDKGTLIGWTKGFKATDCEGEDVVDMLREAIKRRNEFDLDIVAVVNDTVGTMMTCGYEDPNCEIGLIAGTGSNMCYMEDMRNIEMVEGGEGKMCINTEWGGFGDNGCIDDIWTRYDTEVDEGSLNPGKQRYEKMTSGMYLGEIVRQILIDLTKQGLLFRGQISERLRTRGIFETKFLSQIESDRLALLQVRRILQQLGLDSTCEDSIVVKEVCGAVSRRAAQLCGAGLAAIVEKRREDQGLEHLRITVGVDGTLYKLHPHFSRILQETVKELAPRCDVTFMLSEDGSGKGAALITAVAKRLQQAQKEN
The experiment in a line: HKDC1 hexokinase activators, dose response, biochemical, W721R variant (AID 504730). Format: functional.

The nature of test [3]: growth suppression of PTEN-null colon cells, dose response, cell-based, HCT116 PTEN knockout (AID 1047).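 Also: HCT116 colon tumor cells with PTEN knocked out; cells exposed to compound for 60 hours before readout; potency for loss of cell viability measured by luminescence.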 Format: functional.
The nature of test [4]: growth suppression of beta-catenin-knockout colon cells, dose response, cell-based, HCT116, human colon tumor (AID 1045).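 Also: HCT116 colon tumor cells with beta catenin knocked out; cells exposed to compound for 60 hours.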 It is filed as functional.
In test [5] the test system is HEK293. Briefly: NOD2 signaling inhibitors in MDP-stimulated cells, cell-based, uHTS, luminescence (AID 2001). Format: functional. The following applies: Homo sapiens.
The test system of test [6] is HEK293. Briefly: cells. It is filed as functional, cell-based. Particulars: Homo sapiens.
Test [7] relates to HEK293. The experiment in a line: cells. Format: functional, cell-based. Particulars: Homo sapiens. The source holds these as a separate data set.
Test [8] can be described thus: Luminescence Cell-Based Dose Response HTS to Identify Inhibitors of 5'UTR Stem-Loop Driven Prion Protein mRNA Translation in H4 Neuroglioblastoma Cells. [Related pubchem assays: 1827 (Project Summary), 1813 (Primary HTS)]. Format: functional.
A short description of test [9]: inhibitors of SNCA 5'UTR-driven reporter translation, confirmation, H4 neuroglioma cells, luminescence (AID 1988). Format: functional, cell-based.
The subject of test [10] is HEK293. The experiment in a line: NOD1 signaling inhibitors, primary screen, cell-based, luminescence, uHTS (AID 1578). Format: functional. Particulars: Homo sapiens.
Test [11] is described as follows: inhibitors of firefly luciferase expression or activity, dose response, H4 neuroglioma cells, luminescence (AID 1990). It is filed as functional, cell-based.
Test [12] concerns HEK293. Briefly: cells. The following applies: Homo sapiens. Format: functional, cell-based. The source holds these as a separate data set.
Test [13] relates to Streptococcus. Briefly: Group A Streptococcus viability loss, dose response, counter-screen for streptokinase expression inhibitor project, luminescence, BacTiterGlo (AID 1915).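 Also: potency for reduction of bacterial viability or growth.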 It is filed as functional, organism-based. Background: A counterscreen serves to expose hits that act by an unwanted route or on another target.
Test [14] deals with Streptococcus sp. 'group A'. The experiment in a line: growth inhibition of control SK(-) GAS strain, dose response, counter-screen for streptokinase expression inhibitor project, luminescence, kanamycin, BacTiterGlo, confirmation (AID 1900). Format: functional, organism-based.
Test [15] has as its target Nucleotide-binding oligomerization domain-containing protein 2 (Homo sapiens, UniProt Q9HC29). Briefly: NOD2 signaling inhibitors, cell-based, luminescence, uHTS, HEK293 (AID 1566). It is filed as functional.

Sequence of Nucleotide-binding oligomerization domain-containing protein 2 (Q9HC29 whole entry, the tested form may be a part): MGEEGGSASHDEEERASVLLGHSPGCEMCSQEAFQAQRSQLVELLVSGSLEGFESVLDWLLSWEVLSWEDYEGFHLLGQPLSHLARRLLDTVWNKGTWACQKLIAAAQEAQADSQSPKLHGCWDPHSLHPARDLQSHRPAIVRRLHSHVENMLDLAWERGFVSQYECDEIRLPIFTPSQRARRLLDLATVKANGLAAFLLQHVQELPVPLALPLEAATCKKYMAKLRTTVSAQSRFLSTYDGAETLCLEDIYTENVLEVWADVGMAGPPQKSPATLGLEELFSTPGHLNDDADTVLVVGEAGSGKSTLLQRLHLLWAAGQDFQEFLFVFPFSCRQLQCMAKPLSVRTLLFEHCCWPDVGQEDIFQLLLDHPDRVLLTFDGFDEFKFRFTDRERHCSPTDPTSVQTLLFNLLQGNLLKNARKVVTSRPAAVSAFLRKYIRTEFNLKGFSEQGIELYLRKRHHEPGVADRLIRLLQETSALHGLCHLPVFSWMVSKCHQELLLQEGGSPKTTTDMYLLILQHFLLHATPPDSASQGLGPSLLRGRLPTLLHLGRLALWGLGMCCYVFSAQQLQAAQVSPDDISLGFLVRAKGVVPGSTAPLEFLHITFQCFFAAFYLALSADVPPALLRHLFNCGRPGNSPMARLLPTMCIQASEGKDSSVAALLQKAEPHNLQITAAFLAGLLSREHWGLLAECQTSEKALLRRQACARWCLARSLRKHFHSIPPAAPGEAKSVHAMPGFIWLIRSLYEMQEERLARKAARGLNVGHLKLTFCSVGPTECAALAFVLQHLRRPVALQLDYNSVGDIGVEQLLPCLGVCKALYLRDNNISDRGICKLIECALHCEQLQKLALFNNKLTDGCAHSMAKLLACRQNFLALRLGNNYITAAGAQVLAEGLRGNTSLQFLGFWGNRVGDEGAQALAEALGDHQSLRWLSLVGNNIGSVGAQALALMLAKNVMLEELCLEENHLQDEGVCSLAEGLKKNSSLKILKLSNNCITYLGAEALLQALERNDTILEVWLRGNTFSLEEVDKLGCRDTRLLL

`Cn1cnnc1SC1c2cccc3cccc(c23)C1NS(=O)(=O)c1ccccc1` (configuration not stated): the EC50 – broadly, the midpoint of the concentration-response curve – in test [1] is 24.7 µM (inactive); in test [2], 46.7 µM (inactive).
For `Fc1ccc(NC2=NN=C(c3cc(F)ccc3F)CS2)cc1`, the concentration giving a half-maximal response (EC50) in test [3] is 18.5 µM (active); in [1], 28.9 µM (inactive); in [2], 35.7 µM (inactive); in test [4] it was 20.1 µM (active).
Regarding `Cc1ccc(OCCn2c(NC(=O)c3ccco3)nc3ccccc32)cc1`, the half-maximal inhibitory concentration (IC50) (commonly the concentration that gives 50% inhibition) in [5] was 2.41 µM (active); in test [6] it was > 20 µM (inactive); in test [7], 4.87 µM (active); in [12], > 20 µM (inactive). Besides, the EC50 is 15.8 µM (active) in test [8]; 10.3 µM (active) in [9]; 3.15 µM (active) in test [10]; 13.1 µM (active) in [11]; 3.87 µM (active) in test [13]; 1.6 µM (active) in test [14]. For the same compound, in test [15], the EC50 is > 20 µM (inactive).
